According to patent publication US20250074919A1, “Heteroaryl compounds as inhibitors of irak4, compositions and applications thereof” (Accro Bioscience (HK) Limited, priority 2021, published 2025):

Biological target: IRAK4 (Homo sapiens (Human), UniProt Q9NWZ3)
Assay: Screening the compounds against IRAK4 with ATP (Caliper, FAM-labeled peptide)
Type: biochemical
Conditions: for IC50: read-out: IC50 (nM) (10 μM ATP), IRAK4 kinase, 10 μM ATP; for activity, times better than that of the positive control compound CA4948: IRAK4 kinase inhibition relative to CA4948
Description: Prepare Ix kinase base buffer and stop buffer for testing kinases: (1) base buffer: 50 mM HEPES (pH 7.5), 0.0015% Brij-35; (2) stop buffer: 100 mM HEPES (pH 7.5), 0.015% Brij-35, 0.2% Coating Reagent #3, 50 mM EDTA. Then prepare compounds for testing: Dilute the compound to 50× of the final desired highest inhibitor concentration in reaction by 100% DMSO. Transfer 100 μL of this compound dilution to a well in a 96-well plate (source plate).
Serially dilute the compounds by 3-fold for a total of 10 points. Transfer 10 μL of the compound from the source plate to a new 96-well plate (intermediate plate) and add 90 μL of Ix kinase buffer. Shake the mixture on the intermediate plate for 10 min. Transfer 5 μL of each well from the 96-well intermediate plate to a 384-well plate in duplicates. Add 10 μL of 2.5× enzyme solution to each well of the 384-well assay plate and incubate at room temperature for 10 min. Add 10 μL, of 2.5×FAM-labeled peptide and ATP solution and incubate at 28° C. for a period of time. Finally stop the reaction by adding 30 μL of stop buffer and collect data on Caliper to obtain the IC50.

Chain of IRAK4 (Q9NWZ3 whole entry): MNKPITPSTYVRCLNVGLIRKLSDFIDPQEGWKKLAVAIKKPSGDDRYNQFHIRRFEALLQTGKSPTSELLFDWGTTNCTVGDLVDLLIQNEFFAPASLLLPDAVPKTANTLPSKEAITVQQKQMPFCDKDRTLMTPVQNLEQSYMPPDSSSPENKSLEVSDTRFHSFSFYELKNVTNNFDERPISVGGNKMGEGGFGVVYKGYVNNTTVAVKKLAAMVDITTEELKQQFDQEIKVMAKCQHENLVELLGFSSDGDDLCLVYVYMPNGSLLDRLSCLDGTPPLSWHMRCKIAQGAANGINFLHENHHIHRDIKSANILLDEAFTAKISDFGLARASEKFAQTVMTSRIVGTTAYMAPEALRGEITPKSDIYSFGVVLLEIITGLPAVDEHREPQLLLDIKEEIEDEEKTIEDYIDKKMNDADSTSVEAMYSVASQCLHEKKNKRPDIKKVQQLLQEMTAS

| IC50 | activity, times better than that of the positive control compound CA4948 | Structure (SMILES) |
| --- | --- | --- |
| 248 nM | – | Cn1cc(-c2cccc(NC(=O)c3cc4c(nc3OC3CNC(=O)OC3)OC(C)(C)C4)n2)cn1 (centres unmarked) [Compound B28, 2,2-Dimethyl-N-(6-(1-methyl-1H-pyrazol-4-yl)pyridin-2-yl)-6-((2-oxo-1,3-oxazinan-5-yl)oxy)-2,3-dihydrofuro[2,3-b]pyridine-5-carboxamide] |
| 8.9 nM | more than 10 times | Cn1cc(-c2cccc(NC(=O)c3cc4c(nc3O[C@@H]3CCOC3)OC(C)(C)C4)n2)cn1 [Compound B33, (R)-2,2-Dimethyl-N-(6-(1-methyl-1H-pyrazol-4-yl)pyridin-2-yl)-6-((tetrahydrofuran-3-yl)oxy)-2,3-dihydrofuro[2,3-b]pyridine-5-carboxamide] |
| 27 nM | – | Cn1cc(-c2cccc(NC(=O)c3cc4c(nc3OC(F)F)OC(C)(C)C4)n2)cn1 [Compound B20, 6-(Difluoromethoxy)-2,2-dimethyl-N-(6-(1-methyl-1H-pyrazol-4-yl)pyridin-2-yl)-2,3-dihydrofuro[2,3-b]pyridine-5-carboxamide] |
| 176 nM | – | CN1CC(Oc2nc3c(cc2C(=O)Nc2cccc(-c4cnn(C)c4)n2)CC(C)(C)O3)C1 [Compound B31, 2,2-Dimethyl-N-(6-(1-methyl-1H-pyrazol-4-yl)pyridin-2-yl)-6-((1-methylazetidin-3-yl)oxy)-2,3-dihydrofuro[2,3-b]pyridine-5-carboxamide] |

The remaining lines, values behind:

| Structure (SMILES) | IC50 | activity, times better than that of the positive control compound CA4948 |
| --- | --- | --- |
| Cn1cc(-c2cccc(NC(=O)c3cc4oc(N5CCOCC5)nc4nc3N3CC(C)(O)C3)n2)cn1 [Compound A14, 5-(3-Hydroxy-3-methylazetidin-1-yl)-N-(6-(1-methyl-1H-pyrazol-4-yl)pyridin-2-yl)-2-morpholinooxazolo[4,5-b]pyridine-6-carboxamide] | 164 nM | – |
| Cn1cc(-c2cccc(NC(=O)c3cc4oc(N5CCOCC5)nc4nc3N3CCN4CCC[C@@H]4C3)n2)cn1 [Compound A21, (R)-5-(Hexahydropyrrolo[1,2-a]pyrazin-2(1H)-yl)-N-(6-(1-methyl-1H-pyrazol-4-yl)pyridin-2-yl)-2-morpholinooxazolo[4,5-b]pyridine-6-carboxamide] | 26 nM | – |
| Cn1cc(-c2cccc(NC(=O)c3cc4oc(N5CCOCC5)nc4nc3N3CCC(F)(F)CC3)n2)cn1 [Compound A11, 5-(4,4-Difluoropiperidin-1-yl)-N-(6-(1-methyl-1H-pyrazol-4-yl)pyridin-2-yl)-2-morpholinooxazolo[4,5-b]pyridine-6-carboxamide] | 22 nM | more than 5 times |
| Cl.Cn1cc(-c2cccc(NC(=O)c3cc4oc(N5CCOCC5)nc4nc3N3CCN(C4CC4)CC3)n2)cn1 [Compound A35, 5-(4-Cyclopropylpiperazin-1-yl)-N-(6-(1-methyl-1H-pyrazol-4-yl)pyridin-2-yl)-2-morpholinooxazolo[4,5-b]pyridine-6-carboxamide Hydrochloride] | 8.9 nM | more than 10 times |
| Cn1cc(-c2cccc(NC(=O)c3cc4oc(N5CCOCC5)nc4nc3N3CCN4CCC[C@H]4C3)n2)cn1 [Compound A27, (S)-5-(Hexahydropyrrolo[1,2-a]pyrazin-2(1H)-yl)-N-(6-(1-methyl-1H-pyrazol-4-yl)pyridin-2-yl)-2-morpholinooxazolo[4,5-b]pyridine-6-carboxamide] | 81 nM | – |
| COc1ncccc1NC(=O)c1cc2oc(N3CCOCC3)nc2nc1N1CCC(O)CC1 [Compound A45, 5-(4-Hydroxypiperidin-1-yl)-N-(2-methoxypyridin-3-yl)-2-morpholinooxazolo[4,5-b]pyridine-6-carboxamide] | 131 nM | – |
| COc1cccc(NC(=O)c2cc3oc(N4CCOCC4)nc3nc2N2CCC(O)CC2)n1 [Compound A43, 5-(4-Hydroxypiperidin-1-yl)-N-(6-methoxypyridin-2-yl)-2-morpholinooxazolo[4,5-b]pyridine-6-carboxamide] | 137 nM | – |
